Results as given in patent US4948880A, “Anthracycline derivatives having cytostatic activity” (Behringwerke Aktiengesellschaft, priority 1986, dated 1990).
Converted amounts (≈) assume the structure as drawn. Where two headings read alike, the source gives them in different places.

Legend:
[1] = light / sunlight; cited from earlier work
[2] = test system: mouse L1210 leukemia cells; experiment: Formation of L1210 leukemia cell colonies in soft agar (cytostatic activity); assay type: cell-based; conditions: Mus musculus, colonies > 60 μm, % of untreated control
Method: The cytostatic activity of the compounds according to the invention have been tested using mouse L1210 leukemia cells. Use was made for this by the formation of L1210 leukemia cell colonies in agar plates. This method is used to detect the effect of the test substances on the growth behavior of the cells over 1 hour or over several generations. In this connection, with a cell cycle time of 10-12 hours, about 14 consecutive generations are observed in a 7-day duration of the test. In this test, the substances having cytostatic activity according to the invention bring about a reduction, compared with an untreated control sample, in the number of colonies which is to be observed.
Procedure for Determining the Formation of L1210 Leukemia Cell Colonies in Soft Agar
500 leukemia cells per plate were incubated with various concentrations of the test substance at 37° C. for 1 hour. These cells were then washed twice with McCoy 5A medium, 0.3% agar was added, and finally the mixture was poured into Petri dishes. Controls were incubated only with fresh medium. In place of the incubation for one hour, in some cases various concentrations and test substances were mixed with the upper agar layer in order in this way to achieve continuous exposure of the cells throughout the incubation time. After the agar had solidified, the plates were incubated in an incubator at 37° C. for 7 days (5% by volume CO2, 95% relative atmospheric humidity). Thereafter the number of colonies with a diameter of more than 60 μm which had formed was counted. The results have been stated as the number of colonies in treated agar plates as a percentage of the untreated control. The dose-effect graph obtained in this way was used to determine the IC50 as a measure of the activity of the substance. The results for the compounds described here are compiled in Table 1 which follows, comparing with adriamycin.

SMILES: CC[C@@]1(O)C[C@H](O[C@H]2C[C@H](N(C)C)[C@H](O[C@H]3C[C@H](O)[C@H](O[C@H]4CCC(=O)[C@H](C)O4)[C@H](C)O3)[C@H](C)O2)c2c(cc3c(c2O)C(=O)c2c(O)cccc2C3=O)[C@H]1C(=O)OC [aclacinomycin A]
- photolytic decomposition on exposure to light [1]: undergoes photolytic decomposition to a small extent

SMILES: COc1cccc2c1C(=O)c1c(O)c3c(c(O)c1C2=O)C[C@@](O)(C(=O)CO)C[C@@H]3O[C@H]1C[C@H](N)[C@H](O)[C@H](C)O1 [Adriamycin, 7-O-α-L-daunosaminyl-adriamycinone, reference compound]
- IC50 ([2]; L1210, 168 h, read-out: Continuous incubation IC50, continuous exposure, test substance mixed with upper agar layer, 7 days, 37° C.): 0.02 µg/mL (≈ 0.0368 µM)
- IC50 ([2]; L1210, read-out: 1 h incubation IC50, 1 hour incubation with test substance at 37° C., then washed, 7 days in agar): 0.04 µg/mL (≈ 0.0736 µM)
- photolytic decomposition on exposure to light [1]: photolytically decomposed on exposure to light

SMILES: COc1cccc2c1C(=O)c1c(O)c3c(c(O)c1C2=O)C[C@@](O)(C(C)=O)C[C@@H]3O[C@H]1C[C@H](N)[C@H](O)[C@H](C)O1 [daunomycin, 7-O-α-L-daunosaminyl-daunomycinone]
- photolytic decomposition on exposure to light [1]: photolytically decomposed on exposure to light
